Results as given in patent US4935422A, “Acyloxypropanolamines” (E. I. Du Pont de Nemours and Company, priority 1988, dated 1990).

target: β-adrenergic receptors (guinea pig right atria and guinea pig tracheal strips); test: Beta-blocking activity in vitro: guinea pig right atria and tracheal strips, shift of isoproterenol concentration-response curves (pA2); conditions: β-blockade of isoproterenol response, 60-minute incubation, 37 °C; pA2 (-log KB) by method of Furchgott; tissue (atria or trachea) not stated in Table 1
Method: Several of the compounds of the present invention were tested for β-blocking activity in vitro using guinea pig right atria and guinea pig tracheal strips mounted in a tissue bath containing oxygenated (95% O2 -5% CO2) Krebs physiological salt solution at 37° C. Each tissue was suspended between a fixed glass rod and a Statham Universal Transducer connected to a Beckman recorder. Atria were allowed to beat spontaneously under a loading tension of approximately 0.5 gm. Intrinsic depressant or stimulant activity was determined for each compound by progressively increasing concentrations in the tissue baths at 60-minute intervals. Tissues were not washed between increments. The maximum concentration showing little or no cardiodepressant activity was chosen for blockade experiments. Changes in rate in response to isoproterenol, a standard β-receptor agonist, were measured in the absence and presence of test compounds. Spiral strips of guinea pig trachea were suspended under 5 gm resting tension and incubated with phentolamine, tropolone and cocaine. Active tension was generated by addition of carbachol (3.0×10^-7 M) and decreases in tension in response to isoproterenol were quantitated. Cumulative concentration-response curves were produced with isoproterenol both before and after 60-minute incubation of test compounds with atria and trachea. Compounds with β-blocking activity shifted concentration-response curves to the right. The blocking potency of test compounds was estimated by computing pA2 values (-log […]) by the method of Furchgott, the Pharmacological Differentiation of Adrenergic Receptors, Ann. N.Y. Acad. Sci., 139:553-570 (1967). […] The degree of cardioselectivity was estimated from the ratio, kβ trachea/Kβ atria (10^(pA.sbsp.2^atria-pA.sbsp.2^trachea)). A ratio greater than one indicates cardioselectivity. Test drugs were dissolved in distilled water and added to the bath (30 mL) in a volume of 10 or 100 μL. All of the test compounds are active β-blockers. [drawing 10]

| SMILES | pA2 |
| --- | --- |
| CC(C)C(=O)NCC(C)(C)NCC(O)COC(=O)C1=CCCC1 (stereo not shown) [Compound 8] | 7.6 |
| CC(C)C(=O)NCC(C)(C)NCC(O)COC(=O)C(C)(C)C (stereo not shown) [Compound 5] | 6.5 |
| CC(C)(CNC(=O)C1CCOC1)NCC(O)COC(=O)/C=C/c1ccccc1 (stereo not shown) [Compound 12] | 7.3 |
| CC(C)C(=O)NCC(C)(C)NCC(O)COC(=O)C1CC=CCC1 (stereo not shown) [Compound 9] | 6.9 |

Next, values leading:

| pA2 | SMILES |
| --- | --- |
| 8.0 | CC(C)(CNC(=O)N1CCOCC1)NCC(O)COC(=O)C1CC1 (stereo not shown) [Compound 11] |
| 6.5 | CC(C)C(=O)NCC(C)(C)NCC(O)COC(=O)C1CCC1 (stereo not shown) [Compound 7] |
| 5.0 | CC(C)(C)NCC(O)COC(=O)C1CCC1 (stereo not shown) [Compound 4] |
| 6.5 | CC(C)(C)NCC(O)COC(=O)C1CC1 (stereo not shown) [Compound 2] |
| 5.3 | CC(C)(C)NCC(O)COC(=O)C(C)(C)C (stereo not shown) [Compound 3] |
| 8.1 | CC(C)(CNC(=O)N1CCCCC1)NCC(O)COC(=O)C1CC1 (stereo not shown) [Compound 10] |
